Measurements: patent US8455510B2
“Also recorded” adds a separate entry of the source. Read-outs that look alike come from different tables or passages of the source.

How the values were obtained:
[1] = system: Rh30 cells; test: SRB growth inhibition, Rh30 cells; assay type: cell-based, human; details: SRB method, 72 hours, different concentrations, FIG. 1
Description: (§1) After Rh30 cells were treated by the compound at different concentrations, the cell survival rate was detected by SRB method.
(§2) The above various kinds of tumor cells in logarithmic growth phase were inoculated on a 96-well plate with 90 μl per well, and allowed to attach for 24 hours, followed by the addition of the compound with 10 μl per well. For each concentration, the test was carried out in triplicate wells, and included a control well containing the aqueous medium of normal saline at the corresponding concentration and a blank well without cells for zeroing. The tumor cells were cultured for 72 hours at 37° C. and 5% CO2, and then the culture medium was removed. The cells were fixed with cold 10% TCA (trichloroacetic acid) at 4° C. for 1 hour, then washed with distilled water for 5 times, and dried at room temperature, followed by addition of a SRB (Sigma) solution (4 mg/ml) in 1% glacial acetic acid at 100 μl per well. The cells were stained at room temperature for 15 min, and the supernatant was removed. The plate was washed by 1% acetic acid for 5 times and dried at room temperature. Finally, Tris-solution was added at 150 μl per well, and the A value was measured at a wavelength of 520 nm on an ELISA Reader.

[2] = system: PC-3 cells; test: SRB growth inhibition, PC-3 cells; assay type: cell-based, human; details: SRB method, 72 hours, different concentrations, FIG. 1
Description: as §1, §2

[3] = system: human rhabdomyosarcoma RH-30 xenograft; test: RH-30 xenograft on nude mice; details: for TV (mm^3) d0: baseline;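 on all read-outs here: male BALB/cA nude mice with subcutaneous RH-30 tumors, oral dosing versus solvent-fed controls, caliper tumor volume, RTV relative to grouping day, T/C as treated RTV over control RTV ×100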
Description: Animals: BALB/cA nude mice, male, 40-45 days old, body weight: 21±2 g, provided by Shanghai Institute of Materia Medica, Chinese Academy of Sciences. License No.: SCXK (Shanghai) 2004-0002. Animal number in each group: 6 in negative control group, and 6 in administration group.
The amount of inoculated cells was 5×10^6. After the xenograft was formed by inoculation, it was used after passed for 3 generations in nude mice.

[4] = system: MCF-7 cells; test: SRB growth inhibition, MCF-7 cells; assay type: cell-based, human; details: SRB method, 72 hours, different concentrations, FIG. 1
Description: as §1, §2

[5] = system: T Cells; test: Immunosuppressive activity assay: T cells inhibitory activity; assay type: cell-based; details: T-cell; Table 10
[6] = system: human prostate cancer PC-3 xenograft; test: PC-3 xenograft on nude mice; details: 1-5 × 3.5 w; for TV (mm3) d0: baseline
[7] = Immunosuppressive activity assay: cytotoxicity; assay type: cell-based
[8] = system: HL-60 cells; test: SRB growth inhibition, HL-60 cells; assay type: cell-based, human; details: SRB method, 72 hours, different concentrations, FIG. 1
Description: as §1, §2

[9] = molecular target: T1, FKBP-12 protein (Homo sapiens, UniProt P62942); test: SPR (surface plasma resonance) binding with FKBP-12
T1 construct: purchased sigma Co
T1 sequence (P62942 whole entry, species assumed): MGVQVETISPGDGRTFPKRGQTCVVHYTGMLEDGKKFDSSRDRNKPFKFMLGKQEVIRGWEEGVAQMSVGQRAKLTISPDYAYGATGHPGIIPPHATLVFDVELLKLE
Description: (1) FKBP-12 protein was purchased from sigma Co.
(2) HBS-EP buffer solution (10 mM Hepes, 150 mM NaCl, 3.4 mM EDTA, 0.005% (v/v) surfactant P20, pH 7.4)
(3) Activating reagents EDC and NHS, and blocking reagents Ethanolamine, etc., were purchased from BIACORE AB Co. (Uppsala, Sweden).
(4) BIAcore 3000 and CM5 chip were purchased from BIACORE AB Co. (Uppsala, Sweden).
(2) […] was coupled to the FC2 channel on CM5 chip by using the Wizard for amino-coupling in Biacore 3000 controlling soft. 3.3 g/L of FKBP-12 protein was diluted with 10 mM NaAC (pH 4.6) to 66 μg/ml. The surface of the chip was washed by injecting a mixture of 0.1M1-(3-dimethylaminopropyl)-3-ethylcarbodiimide hydrochloride (EDCI) and 0.1M N-hydroxysuccinimide (NHS) (1:1) at a flow rate of 20 μL/min for 7 min. After that, the protein solution was injected, and then a 1M cholamine (pH 8.5) solution was fed for 7 min to block the activated surface of the chip. Preliminary screening and pharmacokinetic tests on the compounds
The binding abilities of small molecular compounds with FKBP-12 protein were evaluated by SPR (surface plasma resonance). The stock solution of the compound was 10 mM, and was diluted by HBS-EP buffer solution at given ratios. Pharmacokinetic tests were carried out by the Wizard for kinetic analysis in Biacore 3000 controlling soft. The resulted data were fitted by 1:1 Langmuir binding model or stability model in Biacore 3000 analytical soft to obtain the exact kinetic and thermodynamic constants.

[10] = system: CAKI-1 cells; test: SRB growth inhibition, CAKI-1 cells; assay type: cell-based, human; details: SRB method, 72 hours, different concentrations, FIG. 1
Description: as §1, §2

[11] = system: phosphorylation levels of p70S6K and 4E-BP1; test: Western blotting of mTOR downstream substrate phosphorylation in tumor cells; assay type: cell-based, human; details: Rh30, PC-3, MCF-7 and CAKI-1 cells, 1 hour treatment, IGF stimulation, FIG. 2
Description: Cells were inoculated on a 12-well plate with given densities and allowed to attach overnight. Then the medium was changed to a serum-free one. After starved for 24 hours, the cells were treated with the compound at corresponding concentrations for 1 hour, and then stimulated by IGF for 10 min. The cells were collected, and the phosphorylation levels of p70S6K and 4E-BP1 in the cells were measured by using Western blotting.

[12] = Table 2, 5 mg/kg p.o, 1-5 × 3 w
[13] = Table 2, 10 mg/kg p.o, 1-5 × 3 w

Structure (SMILES): CO[C@H]1CC2CC[C@@H](C)[C@@](O)(O2)C(=O)C(=O)N2CCCCC2C(=O)O[C@H]([C@H](C)C[C@@H]2CC[C@@H](OC(=O)OCC(O)CO)[C@H](OC)C2)CC(=O)[C@H](C)/C=C(\C)[C@@H](OC(=O)OCC(O)CO)[C@@H](OC)C(=O)[C@H](C)C[C@H](C)/C=C/C=C/C=C/1C (stereo partly shown) [Y50]
- inhibitory effects on the growth of Rh30 cells [1]: comparable to those of rapamycin
- inhibitory effects on the growth of PC-3 cells [2]: comparable to those of rapamycin
- Body Weight (g) end [3, 12]: 25.8 g
- Body Weight (g) start [3, 12]: 22.2 g
- RTV [3, 12]: 2.9 ± 0.5
- T/C (%) [3, 12]: 32.5%
- TV (mm^3) d21 [3, 12]: 380 ± 146 mm^3
- TV (mm^3) d0 [3, 12]: 132 ± 47 mm^3
- Body Weight (g) end [3, 13]: 26.0 g
- Body Weight (g) start [3, 13]: 23.0 g
- RTV [3, 13]: 3.5 ± 1.1
- T/C (%) [3, 13]: 32.9%
- TV (mm^3) d21 [3, 13]: 415 ± 71 mm^3
- TV (mm^3) d0 [3, 13]: 130 ± 50 mm^3
- Body Weight (g) end ([3]; Table 4, 5 mg/kg po, 1-5/2 w): 21.5 g
- Body Weight (g) start ([3]; Table 4, 5 mg/kg po, 1-5/2 w): 20.0 g
- RTV ([3]; Table 4, 5 mg/kg po, 1-5/2 w): 2.0 ± 0.5
- T/C (%) ([3]; Table 4, 5 mg/kg po, 1-5/2 w): 46.6%
- TV (mm^3) d14 ([3]; Table 4, 5 mg/kg po, 1-5/2 w): 323 ± 124 mm^3
- TV (mm^3) d0 ([3]; Table 4, 5 mg/kg po, 1-5/2 w): 160 ± 47 mm^3
- inhibitory effects on the growth of MCF-7 cells [4]: comparable to those of rapamycin
- IC50 [5]: 9.1 µM
- Body Weight (g) end ([6]; Table 3, 2.5 mg/kg p.o): 17.7 g
- Body Weight (g) start ([6]; Table 3, 2.5 mg/kg p.o): 19.7 g
- RTV ([6]; Table 3, 2.5 mg/kg p.o): 2.6 ± 1.1
- T/C (%) ([6]; Table 3, 2.5 mg/kg p.o): 40.2%
- TV (mm3) d21 ([6]; Table 3, 2.5 mg/kg p.o): 273 ± 163 mm3
- TV (mm3) d0 ([6]; Table 3, 2.5 mg/kg p.o): 103 ± 35 mm3
- Body Weight (g) end ([6]; Table 3, 5 mg/kg p.o): 22.3 g
- Body Weight (g) start ([6]; Table 3, 5 mg/kg p.o): 22.7 g
- RTV ([6]; Table 3, 5 mg/kg p.o): 0.65 ± 0.4
- T/C (%) ([6]; Table 3, 5 mg/kg p.o): 10.0%
- TV (mm3) d21 ([6]; Table 3, 5 mg/kg p.o): 70 ± 59 mm3
- TV (mm3) d0 ([6]; Table 3, 5 mg/kg p.o): 98 ± 42 mm3
- Safety Index CC50/IC50 ([7]; Table 10): >10.9
- CC50 ([7]; Table 10, value beyond the >100 μM bound, read-out: Cytotoxicity CC50, value in brackets): 7590 µM
- CC50 ([7]; Table 10, read-out: Cytotoxicity CC50): > 100 µM
- inhibitory effects on the growth of HL-60 cells [8]: comparable to those of rapamycin
- binding with FKBP12 [9]: concentration-dependently bind
- Kd ([9]; FKBP12): 0.00026 µM
- koff ([9]; FKBP12): 0.14 × 10^−3 S^−1
- kon ([9]; FKBP12): 5.24 × 10^5 M^−1S^−1
- R^U (Response Unit) compared with rapamycin ([9]; at the same concentration): higher
- concentration to reach the saturation state for the binding with FKBP12 ([9]; compared with rapamycin): lower than that for rapamycin
- inhibitory effects on the growth of CAKI-1 cells [10]: comparable to those of rapamycin
- inhibition of mTOR-catalyzed phosphorylation of p70S6K and 4E-BP1 [11]: concentration-dependently suppress; also recorded: comparable inhibitory effects to those of rapamycin
